Test results as given in PMC6943441, “The Meta-Position of Phe^4 in Leu-Enkephalin Regulates Potency, Selectivity, Functional Activity, and Signaling Bias at the Delta and Mu Opioid Receptors” (Molecules, 2019).
pEC50, pKi: −log10 of the molar value. Like-named read-outs stand apart in the source and are kept apart here. Square brackets hold non-standard residues; d marks the D form. Peptide text beside a SMILES is read from it. 2Pal = N[C@@H](Cc1ccccn1)C(=O)O

Tests used:
µOR [1] = molecular target: T1, µOR (Homo sapiens, UniProt P35372); test: Bias factor calculation (operational model, cAMP vs β-arrestin 2); conditions: DAMGO as reference, >1 = more G protein-biased
T1 sequence (P35372 whole entry): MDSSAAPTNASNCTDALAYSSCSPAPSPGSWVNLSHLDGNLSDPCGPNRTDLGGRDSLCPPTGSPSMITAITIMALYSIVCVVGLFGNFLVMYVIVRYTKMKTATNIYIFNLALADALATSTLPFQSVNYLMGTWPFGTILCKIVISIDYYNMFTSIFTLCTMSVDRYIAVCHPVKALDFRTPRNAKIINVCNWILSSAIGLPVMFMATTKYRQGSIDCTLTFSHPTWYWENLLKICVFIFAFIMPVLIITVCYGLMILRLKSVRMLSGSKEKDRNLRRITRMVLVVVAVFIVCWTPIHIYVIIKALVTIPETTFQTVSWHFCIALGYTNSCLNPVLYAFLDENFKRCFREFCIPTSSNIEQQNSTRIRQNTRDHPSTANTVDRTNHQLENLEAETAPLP
Description: Bias factors were calculated using the operational model equation in Prism 8 to calculate Log R (τ/KA) (Table S2) as previously described [12]. […] A bias factor > 1 meant that the agonist was more G protein-biased than the reference compound; A bias factor < 1 meant that the agonist was less G protein-biased than the reference compound.

FLAG-mouse δOR = molecular target: T2, FLAG-mouse δOR (Mus musculus, UniProt P32300); test: cAMP GloSensor inhibition assay in HEK 293 cells; assay type: cell-based; conditions: for IC50: HEK 293, forskolin 30 µM; for LogR (δOR) cAMP: operational model Log R (τ/KA); for cAMP δOR Efficacy (%+SD): relative to Leu-enkephalin = 100
T2 construct: FLAG; expressed in transfected cells; host or cells: HEK 293
T2 sequence (P32300 whole entry): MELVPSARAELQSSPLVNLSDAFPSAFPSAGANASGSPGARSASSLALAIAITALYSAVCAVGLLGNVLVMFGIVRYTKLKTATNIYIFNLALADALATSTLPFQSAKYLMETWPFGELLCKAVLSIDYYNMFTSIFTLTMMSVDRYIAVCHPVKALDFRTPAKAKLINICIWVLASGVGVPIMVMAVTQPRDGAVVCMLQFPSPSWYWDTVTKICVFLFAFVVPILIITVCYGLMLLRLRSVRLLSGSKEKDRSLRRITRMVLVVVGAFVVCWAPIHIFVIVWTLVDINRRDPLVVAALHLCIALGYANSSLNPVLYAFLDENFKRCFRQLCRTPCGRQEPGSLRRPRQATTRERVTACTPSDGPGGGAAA
Description: (§2) In brief, for cAMP inhibition assays HEK 293 (Life Technologies, Grand Island, NY, USA) cells were transiently transfected in a 1:3 ratio with FLAG-mouse δOR, or HA-mouse µOR and pGloSensor22F-cAMP plasmids (Promega, Madison, WI, USA) using Xtremegene9 (Sigma). Two days post-transfection cells (20,000 cells/well, 7.5 µL) were seeded in low volume Greiner 384-well plates (#82051-458, VWR, Batavia, IL, USA) and were incubated with Glosensor reagent (Promega, 7.5 µL, 2% final concentration) for 90 min at room temperature. […] For β-arrestin recruitment assays, CHO-human µOR PathHunter β-arrestin 2 cells or CHO-human δOR PathHunter β-arrestin 2 cells (DiscoverX, Fremont, CA, USA) were plated (2,500 cells/well, 10 µL) one day prior to stimulation with 2.5 µL drug solution for 90 min at 37 °C/5% CO2, after which cells were incubated with 6 µL cell PathHunter assay buffer (DiscoverX) for 60 min at room temperature as per the manufacturer’s protocol. Luminescence for each of these assays was measured using a FlexStation3 plate reader (Molecular Devices, Sunnyvale, CA, USA).
(§3) All data are presented as means ± standard error of the mean, and analysis was performed using GraphPad Prism 8 software (GraphPad Software, La Jolla, CA). For in vitro assays, nonlinear regression was conducted to determine pIC50 (cAMP) or pEC50 (β-arrestin 2 recruitment). […] The averages of each independent run were counted as a single experiment and combined to provide a composite curve in favor of providing a ‘representative’ curve. In each experimental run, a positive control/reference compound was utilized to allow the data to be normalized and to calculate the log bias value. A minimum of three independent values were obtained for each compound in each of the cellular assays.

Rat plasma stability = conditions: for Degradation Products (First Appearance): rat plasma, UPLC-mass spectrometry, time of first appearance in parentheses; for half-life: rat, plasma
Description: Peptides were synthesized using an Aapptec Focus XC automated peptide synthesizer coupled with a heating system using a solid phase peptide synthesis protocol using Fmoc chemistry. Preparative RP-HPLC was performed using an appropriate column and solvent system (described below) and final purity of peptides was determined by UV area % from UPLC analysis. Peptides were purified by Teledyne ISCO EZ Prep system on RediSep® C18 Prep column (30 × 250 mm, 100 Å). […] Plasma stability was also assessed using the above UPLC column and solvent gradient program using a Waters H class Plus Acquity UPLC system coupled with a QDa detector using protocol B.
Sprague Dawley rat plasma containing K2-ethylenediaminetetraacetic acid (Innovative Research, MI, USA) was transferred into 300 µL aliquots and stored at −20 °C until use. […] After adding analog, an aliquot of the mixture was removed at each indicated time point (0, 5, 10, 15, 20, 30, 60, 120, 240 min) and immediately quenched with 100 μL of a methanol solution containing 20 μM Fmoc-Leu-OH as an internal standard. […] Then, the filtrate was transferred into vials and a 5 μL sample of the resulting solution was analyzed on an UPLC system coupled with a QDa detector. […] Determination of half-life (t1/2) was carried out by using the GraphPad Prism one-phase decay method.

µOR [2] = molecular target: T1, µOR; test: Competition radioligand binding, [3H]DAMGO
Description: (§1) Next, 100 µL of membrane suspension containing 7 µg protein was added to the agonist wells and incubated for 90 min at room temperature. The reaction mixture was then filtered over a GF-B filter plate (Perkin Elmer) followed by four quick washes with ice-cold 50 mM Tris HCl. The plate was dried overnight, after which 50 µL scintillation fluid (Ultimagold uLLT) was added and radioactivity was counted on a Packard TopCount NXT scintillation counter. All working solutions were prepared in a radioligand assay buffer containing 50 mM Tris HCl, 10 mM MgCl2, and 1 mM ethylenediaminetetraacetic acid at pH 7.4.

µOR [3] = molecular target: T1, µOR; test: cell-based; assay type: cell-based
Description: as §2, §3

HA-mouse µOR = molecular target: T3, HA-mouse µOR (Mus musculus, UniProt P42866); test: cAMP GloSensor inhibition assay in HEK 293 cells; assay type: cell-based; conditions: for IC50: HEK 293, forskolin 30 µM; for LogR (µOR) cAMP: operational model Log R (τ/KA); for cAMP µOR Efficacy (%+SD): relative to DAMGO = 100
T3 construct: HA; expressed in transfected cells; host or cells: HEK 293
T3 sequence (P42866 whole entry): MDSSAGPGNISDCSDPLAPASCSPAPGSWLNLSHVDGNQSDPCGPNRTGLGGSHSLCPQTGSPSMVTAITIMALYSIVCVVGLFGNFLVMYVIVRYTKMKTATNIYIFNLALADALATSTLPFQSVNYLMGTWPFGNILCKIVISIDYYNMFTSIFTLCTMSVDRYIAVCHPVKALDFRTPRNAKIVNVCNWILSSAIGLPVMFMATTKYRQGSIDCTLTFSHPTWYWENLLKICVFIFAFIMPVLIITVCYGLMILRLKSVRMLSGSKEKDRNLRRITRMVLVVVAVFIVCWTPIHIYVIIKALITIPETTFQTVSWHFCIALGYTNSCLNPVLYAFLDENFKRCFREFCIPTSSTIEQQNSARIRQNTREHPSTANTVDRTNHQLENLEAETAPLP
Description: as §2, §3

δOR [4] = molecular target: T4, δOR (Homo sapiens, UniProt P41143); test: Competition radioligand binding, [3H]DPDPE
T4 sequence (P41143 whole entry): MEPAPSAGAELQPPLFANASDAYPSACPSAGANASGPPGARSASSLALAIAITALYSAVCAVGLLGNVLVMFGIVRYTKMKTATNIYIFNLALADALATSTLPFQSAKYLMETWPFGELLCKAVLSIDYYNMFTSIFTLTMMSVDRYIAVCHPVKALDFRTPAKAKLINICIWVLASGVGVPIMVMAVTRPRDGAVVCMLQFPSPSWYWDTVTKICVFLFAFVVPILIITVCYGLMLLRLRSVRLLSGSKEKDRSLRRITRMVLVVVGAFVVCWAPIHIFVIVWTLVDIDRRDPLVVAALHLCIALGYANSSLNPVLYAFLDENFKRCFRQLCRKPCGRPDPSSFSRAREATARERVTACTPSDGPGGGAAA
Description: as §1

δOR [5] = molecular target: T4, δOR; test: PathHunter β-arrestin 2 recruitment assay in CHO cells
Description: as §2, §3

Row | Structure (SMILES) | Bias Factor µOR (DG = Ref) (µOR [1]) | IC50 (FLAG-mouse δOR; read-out: cAMP IC50 (nM) δOR) [nM] | LogR (δOR) cAMP (FLAG-mouse δOR) | cAMP δOR Efficacy (%+SD) (FLAG-mouse δOR) [%] | Degradation Products (First Appearance) (Rat plasma stability) | half-life (Rat plasma stability) [min] | pKi (µOR [2]) | pEC50 (µOR [3]) | LogR (µOR) β-arr2 (µOR [3]) | β-Arrestin 2 µOR Efficacy (% + SEM) (µOR [3]) [%] | LogR (µOR) cAMP (HA-mouse µOR) | cAMP µOR Efficacy (%+SD) (HA-mouse µOR) [%] | IC50 (HA-mouse µOR; read-out: cAMP IC50 (nM) µOR) [nM] | other results
1 | CC(C)C[C@H](NC(=O)[C@H](Cc1cccc(Br)c1)NC(=O)CNC(=O)CNC(=O)[C@@H](N)Cc1ccc(O)cc1)C(=O)O [Compound 1c, H2N-Tyr-Gly-Gly-(meta-Br)Phe-Leu-OH] | 1.2 | 0.03 | 10.5 | 96 ± 4 | Gly-Gly-(meta-Br)Phe-Leu (5 min) (meta-Br)Phe-Leu (15 min) | 21.5 | 9.89 | 7.45 | 7.2 | 79 ± 6 | 8.1 | 104 ± 11 |  | IC50 (HA-mouse µOR; read-out: cAMP pIC50 ± SEM (µOR) (converted)): 10 nM
2 | C[C@@H](NC(=O)[C@@H](N)Cc1ccc(O)cc1)C(=O)NCC(=O)N(C)[C@@H](Cc1ccccc1)C(=O)NCCO [DAMGO, (D-Ala^2, N-MePhe^4, Gly-ol) enkephalin, reference compound] | 1 |  |  |  |  |  |  |  |  |  | 7.8 | 100 |  | β-Arrestin 2 µOR Efficacy (% + SEM) (µOR [3]; relative to DAMGO = 100%): 100%
3 | CC(C)C[C@H](NC(=O)[C@H](Cc1cccc(I)c1)NC(=O)CNC(=O)CNC(=O)[C@@H](N)Cc1ccc(O)cc1)C(=O)O [Compound 1d] | 3.2 | 0.025 |  | 97 ± 4 | Gly-Gly-(meta-I)Phe-Leu (5 min) (meta-I)Phe-Leu (15 min) | 13.2 | 9.85 | 7.33 | 6.6 | 70 ± 3 | 8.0 | 94 ± 11 | 4.27 | 
4 | CC(C)C[C@H](NC(=O)[C@H](Cc1ccccn1)NC(=O)CNC(=O)CNC(=O)[C@@H](N)Cc1ccc(O)cc1)C(=O)O [Compound 1j] (H-YGG[2Pal]L-OH; N-terminus and C-terminus assumed) |  | 4.57 |  |  | (2-pyridyl)Ala-Leu (5 min) Gly-Gly-(2-pyridyl)Ala-Leu (30 min) | 26.8 | 8.04 |  |  |  |  |  | 40.7 | G Protein Selectivity (δOR vs µOR) (FLAG-mouse δOR; cAMP potency δOR vs µOR): 8.9; pKi (δOR [4]): 8.21; Binding Selectivity (δOR vs µOR) (δOR [4]; ratio of Ki values): 1.5; EC50 (µOR [3]; CHO PathHunter, read-out: β-Arrestin 2 EC50 (nM) µOR): 1350 nM; pEC50 (δOR [5]): 7.00
5 | CC(C)C[C@H](NC(=O)[C@H](Cc1cccc([N+](=O)[O-])c1)NC(=O)CNC(=O)CNC(=O)[C@@H](N)Cc1ccc(O)cc1)C(=O)O [Compound 1i] |  | 0.47 | 9.0 | 99 ± 6 | Gly-Gly-(meta-NO2)Phe-Leu (5 min) (meta- NO2)Phe-Leu (20 min) | 28.8 | 9.01 | 6.27 | 5.3 | 60 ± 6 | 7.2 |  | 49 | Bias Factor µOR (DG = Ref) (µOR [1]; listed as 1i (NO2)): 11.1
6 | Cc1cccc(C[C@H](NC(=O)CNC(=O)CNC(=O)[C@@H](N)Cc2ccc(O)cc2)C(=O)N[C@@H](CC(C)C)C(=O)O)c1 [Compound 1e] | 11.5 | 0.039 | 10 | 92 ± 8 | Gly-Gly-(meta-Me)Phe-Leu (5 min) (meta-Me)Phe-Leu (20 min) | 39.5 | 9.85 | 6.73 | 6.1 | 71 ± 3 | 8.1 | 85 ± 10 | 3.72 | 
7 | CC(C)C[C@H](NC(=O)[C@H](Cc1cccc(C(F)(F)F)c1)NC(=O)CNC(=O)CNC(=O)[C@@H](N)Cc1ccc(O)cc1)C(=O)O [Compound 1g] | 4.3 | 0.11 | 9.7 | 92 ± 8 | Gly-Gly-(meta-CF3)Phe-Leu (5 min) (meta- CF3)Phe-Leu (30 min) | 44.5 |  | 7.25 | 6.6 | 71 ± 3 | 8.1 | 90 ± 4 | 2.45 | 
8 | COc1cccc(C[C@H](NC(=O)CNC(=O)CNC(=O)[C@@H](N)Cc2ccc(O)cc2)C(=O)N[C@@H](CC(C)C)C(=O)O)c1 [Compound 1f] |  | 0.14 | 9.8 | 98 ± 10 | Gly-Gly-(meta-OMe)Phe-Leu (5 min) (meta-OMe)Phe-Leu (20 min) | 46.1 |  | 6.23 | 5.6 | 67 ± 3 | 7.4 | 87 ± 5 | 8.12 | Bias Factor µOR (DG = Ref) (µOR [1]; listed as 1f (OMe)): 8.4
9 | CC(C)C[C@H](NC(=O)[C@H](Cc1cccc(C#N)c1)NC(=O)CNC(=O)CNC(=O)[C@@H](N)Cc1ccc(O)cc1)C(=O)O [Compound 1h] | 5.4 | 0.35 | 9.3 | 100 ± 3 | Gly-Gly-(meta-CN)Phe-Leu (5 min) (meta-CN)Phe-Leu (20 min) | 33 | 9.52 | 6.80 | 5.9 | 68 ± 4 | 7.5 | 92 ± 13 | 12 | 
10 | CC(C)C[C@H](NC(=O)[C@H](Cc1cccc(F)c1)NC(=O)CNC(=O)CNC(=O)[C@@H](N)Cc1ccc(O)cc1)C(=O)O [Compound 1a, H2N-Tyr-Gly-Gly-(meta-F)Phe-Leu-OH] | 22.2 | 0.39 | 9.4 | 95 ± 6 | Gly-Gly-(meta-F)Phe-Leu (5 min) (meta-F)Phe-Leu (60 min) | 82.3 |  | 6.24 | 5.8 | 75 ± 13 | 8.0 | 98 ± 6 |  | IC50 (FLAG-mouse δOR; read-out: cAMP pIC50 ± SEM (δOR) (converted)): 0.339 nM
11 | CC(C)C[C@H](NC(=O)[C@H](Cc1ccccc1)NC(=O)CNC(=O)CNC(=O)[C@@H](N)Cc1ccc(O)cc1)C(=O)O [Leu^5-enkephalin, Tyr^1-Gly^2-Gly^3-Phe^4-Leu^5, reference compound] |  |  |  | 100 | Gly-Gly-Phe-Leu (5 min) Phe-Leu (10 min) |  |  |  |  |  |  | 100 |  | cAMP µOR Efficacy (%+SD) (HA-mouse µOR; listed as Leu-enkephalin): 100 ± 9%
12 | CC(C)C[C@H](NC(=O)[C@H](Cc1cccc(Cl)c1)NC(=O)CNC(=O)CNC(=O)[C@@H](N)Cc1ccc(O)cc1)C(=O)O [Compound 1b, H2N-Tyr-Gly-Gly-(meta-Cl)Phe-Leu-OH] | 0.3 | 0.022 | 10.6 | 94 ± 5 | Gly-Gly-(meta-Cl)Phe-Leu (5 min) (meta-Cl)Phe-Leu (30 min) | 37.8 |  | 7.17 | 7.2 | 96 ± 8 | 7.5 | 99 ± 7 | 30.2 | 
